This experiment addresses T1, Human M4 (Homo sapiens, UniProt P08173).
T1 construct: expressed in transfected cells
T1 sequence (P08173 1-479): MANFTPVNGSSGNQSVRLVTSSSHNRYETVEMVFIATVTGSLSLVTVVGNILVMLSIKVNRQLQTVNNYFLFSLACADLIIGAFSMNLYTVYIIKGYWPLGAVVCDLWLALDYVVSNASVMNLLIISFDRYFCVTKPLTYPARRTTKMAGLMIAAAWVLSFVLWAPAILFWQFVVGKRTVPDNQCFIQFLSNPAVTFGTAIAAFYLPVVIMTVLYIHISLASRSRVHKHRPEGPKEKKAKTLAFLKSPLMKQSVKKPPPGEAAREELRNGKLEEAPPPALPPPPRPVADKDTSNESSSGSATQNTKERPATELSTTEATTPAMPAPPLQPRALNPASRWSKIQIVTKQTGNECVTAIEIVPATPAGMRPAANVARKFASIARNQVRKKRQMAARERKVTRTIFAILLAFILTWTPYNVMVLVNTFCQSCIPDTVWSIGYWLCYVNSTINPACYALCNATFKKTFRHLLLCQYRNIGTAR
In words: mAChR M4 cell-based functional assay (calcium flux, potentiation of EC20 acetylcholine response), hM4-Gqi5 CHO-K1 cells. The following applies: for Emax / Emax at 30 µM: CHO-K1; for pEC50: calcium flux, read-out: Human M4 EC50; for Emax at 30 µM: % ACh maximum at 30 μM. In a few lines:
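Positive allosteric modulation was scored as a concentration-dependent rise in the response to an EC20 dose of acetylcholine, added 144 s after the compound. Human M4-Gqi5 CHO-K1 cells carried Fluo-4 dye, and compounds ran as 11-point, 3-fold dilution series. EC50 and Emax came from four-parameter logistic fits of the FDSS fluorescence-ratio traces.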

The mark [1] stands for this setting: hM4-Gqi5 CHO-K1 cells, PAM of EC20 acetylcholine.
The mark [2] stands for this setting: Table 4, Human M4, read-out: Emax (% ACh maximum at 30 μM).
The mark [3] stands for this setting: Table 4, potentiation of EC20 acetylcholine response, CHO-K1 cells.
Where [4] appears, read: Table 3, Human M4, read-out: Emax (% ACh maximum at 30 μM).
The mark [5] stands for this setting: Table 3, potentiation of EC20 acetylcholine response, CHO-K1 cells.

The results in this text go back to patent US20250002507A1, “7,8-DIHYDRO-5H-1,6-NAPHTHYRIDINE DERIVATIVES AS POSITIVE ALLOSTERIC MODULATORS OF THE MUSCARINIC ACETYLCHOLINE RECEPTOR M4 FOR TREATING NEUROLOGICAL AND PSYCHIATRIC DISORDERS” (Vanderbilt University, priority 2021, published 2025).

pEC50: −log10 of the molar value. Where two headings read alike, the source gives them in different places.

As usually defined, the Emax is the maximal effect, on the per cent scale that the assay sets. Usually pEC50 stands for the negative decadic logarithm of the EC50, by convention in mol/L.

For `Cc1c(N2CCc3ncc(Nc4ccccc4F)cc3C2)nn2cnnc2c1C` [Compound 33, 6-(7,8-Dimethyl-[1,2,4]triazolo[4,3-b]pyridazin-6-yl)-N-(2-fluorophenyl)-5,6,7,8-tetrahydro-1,6-naphthyridin-3-amine], the maximal response (Emax) came out at 94%. Further, the pEC50 under setting [1] was 6.79.

`[2H]C1([2H])Cc2ncc(Nc3ccncc3C)cc2C([2H])([2H])N1c1nn2cnnc2cc1C` [Compound 356, 6-(7-methyl-[1,2,4]triazolo[4,3-b]pyridazin-6-yl)-N-(3-methylpyridin-4-yl)-5,6,7,8-tetrahydro-1,6-naphthyridin-5,5,7,7-d4-3-amine]: the Emax at 30 µM under setting [2] was 77%. Moreover, the pEC50 under setting [3] was 6.16.

Consider `Cc1c(N2CCc3ncc(Nc4cc(F)cc(F)c4F)cc3C2)nn2c(C)nnc2c1C` [Compound 85, N-(2,3,5-trifluorophenyl)-6-(3,7,8-trimethyl-[1,2,4]triazolo[4,3-b]pyridazin-6-yl)-7,8-dihydro-5H-1,6-naphthyridin-3-amine], for which the Emax at 30 µM (human M4, read-out: Emax) was 92%. Besides, the pEC50 under setting [1] was 6.45.

For the molecule `Cc1c(N2CCc3ncc(OCC4COCCO4)cc3C2)nn2cnnc2c1C` (stereo not shown) [Compound 260, 3-((1,4-dioxan-2-yl)methoxy)-6-(7,8-dimethyl-[1,2,4]triazolo[4,3-b]pyridazin-6-yl)-5,6,7,8-tetrahydro-1,6-naphthyridine], the Emax at 30 µM under setting [4] came to 84%. Further, the pEC50 under setting [5] was 5.11.

For the molecule `Cc1c(N2CCc3ncc(Cc4cccc(F)c4)cc3C2)nn2c(C(F)(F)F)nnc2c1C` [Compound 312, 6-(7,8-dimethyl-3-(trifluoromethyl)-[1,2,4]triazolo[4,3-b]pyridazin-6-yl)-3-(3-fluorobenzyl)-5,6,7,8-tetrahydro-1,6-naphthyridine], under setting [2], the Emax at 30 µM is 60%. The pEC50 under setting [3] is 5.74.

Regarding `Cc1c(N2CCc3ncc(-c4cnn(C5CCC5)c4)cc3C2)nn2cnnc2c1C` [Compound 99, 3-(1-cyclobutylpyrazol-4-yl)-6-(7,8-dimethyl-[1,2,4]triazolo[4,3-b]pyridazin-6-yl)-7,8-dihydro-5H-1,6-naphthyridine], the Emax at 30 µM (human M4, read-out: Emax) came to 95%. Moreover, the negative-log EC50 (pEC50) under setting [1] is 6.56.

For the molecule `Cc1c(N2CCc3ncc(N4CC(C)Cn5nccc54)cc3C2)nn2c(C(F)(F)F)nnc2c1C` (stereo not shown) [Compound 306, 6-(7,8-dimethyl-3-(trifluoromethyl)-[1,2,4]triazolo[4,3-b]pyridazin-6-yl)-3-(6-methyl-6,7-dihydropyrazolo[1,5-a]pyrimidin-4(5H)-yl)-5,6,7,8-tetrahydro-1,6-naphthyridine], under setting [2], the Emax at 30 µM was 102%. The pEC50 under setting [3] was 6.84.

As for `Cc1c(N2CCc3ncc(-c4ccn(C)n4)cc3C2)nn2cnnc2c1C` [Compound 2, 6-(7,8-dimethyl-[1,2,4]triazolo[4,3-b]pyridazin-6-yl)-3-(1-methylpyrazol-3-yl)-7,8-dihydro-5H-1,6-naphthyridine], the maximum response (Emax) at 30 µM (human M4, read-out: Emax) was 102%. Also, the pEC50 under setting [1] is 6.20.

Consider `[2H]c1nnc2c(C)c(C)c(N3CCc4ncc(-c5cnn(CC6CC6)c5)cc4C3)nn12` [Compound 77, 3-[1-(cyclopropylmethyl)pyrazol-4-yl]-6-(3-deuterio-7,8-dimethyl-[1,2,4]triazolo[4,3-b]pyridazin-6-yl)-7,8-dihydro-5H-1,6-naphthyridine], for which the Emax at 30 µM (human M4, read-out: Emax) is 89%. The negative logarithm of the EC50 (pEC50) under setting [1] is 6.67.

Turning to `Cc1noc(C)c1-c1cnc2c(c1)CN(c1nn3c(C(F)(F)F)nnc3c(C)c1C)CC2` [Compound 92, 4-[6-[7,8-dimethyl-3-(trifluoromethyl)-[1,2,4]triazolo[4,3-b]pyridazin-6-yl]-7,8-dihydro-5H-1,6-naphthyridin-3-yl]-3,5-dimethyl-isoxazole], the maximal effect (Emax) at 30 µM (human M4, read-out: Emax) was determined as 79%. Besides, the negative-log EC50 (pEC50) under setting [1] is 6.70.

As for `Cc1cc2nncn2nc1N1CCc2ncc(-c3cccnc3)cc2C1` [Compound 199, 6-(7-methyl-[1,2,4]triazolo[4,3-b]pyridazin-6-yl)-3-(pyridin-3-yl)-5,6,7,8-tetrahydro-1,6-naphthyridine], the Emax at 30 µM under setting [4] worked out at 84%. Under setting [5], the negative logarithm of the EC50 (pEC50) was 6.48.

Consider `Cc1c(N2CCc3ncc(Nc4ccc(Cl)cc4F)cc3C2)nn2cnnc2c1C` [Compound 68, N-(4-chloro-2-fluoro-phenyl)-6-(7,8-dimethyl-[1,2,4]triazolo[4,3-b]pyridazin-6-yl)-7,8-dihydro-5H-1,6-naphthyridin-3-amine], for which the Emax at 30 µM (human M4, read-out: Emax) came out at 96%. In addition, the pEC50 under setting [1] is 6.41.

For `Cc1c(N2CCc3ncc(-n4cccn4)cc3C2)nn2c(C(F)(F)F)nnc2c1C` [Compound 247, 6-(7,8-dimethyl-3-(trifluoromethyl)-[1,2,4]triazolo[4,3-b]pyridazin-6-yl)-3-(1H-pyrazol-1-yl)-5,6,7,8-tetrahydro-1,6-naphthyridine], the maximal effect (Emax) at 30 µM under setting [4] stood at 74%. Moreover, the negative logarithm of the EC50 (pEC50) under setting [5] is 6.51.

As for `Cc1nn(C)c(C)c1-c1cnc2c(c1)CN(c1nn3cnnc3c(C)c1C)CC2` [Compound 23, 6-(7,8-dimethyl-[1,2,4]triazolo[4,3-b]pyridazin-6-yl)-3-(1,3,5-trimethylpyrazol-4-yl)-7,8-dihydro-5H-1,6-naphthyridine], the Emax at 30 µM (human M4, read-out: Emax) stood at 94%. Further, the pEC50 under setting [1] was 6.83.

For `Cc1nn(C)c(C)c1-c1cnc2c(c1)CN(c1nn3c(C(F)(F)F)nnc3c(C)c1C)CC2` [Compound 93, 6-[7,8-dimethyl-3-(trifluoromethyl)-[1,2,4]triazolo[4,3-b]pyridazin-6-yl]-3-(1,3,5-trimethylpyrazol-4-yl)-7,8-dihydro-5H-1,6-naphthyridine], where the note is “human M4, read-out: Emax”, the Emax at 30 µM amounted to 93%. Also, under setting [1], the pEC50 is 6.76.

Consider `Cc1c(N2CCc3ncc(Oc4ccc5c(cnn5C)c4)cc3C2)nn2cnnc2c1C` [Compound 8, 6-(7,8-dimethyl-[1,2,4]triazolo[4,3-b]pyridazin-6-yl)-3-(1-methylindazol-5-yl)oxy-7,8-dihydro-5H-1,6-naphthyridine], for which the Emax at 30 µM (human M4, read-out: Emax) is 68%. Moreover, the pEC50 under setting [1] was 6.70.

As to `Cc1cc2nncn2nc1N1CCc2ncc(-c3ccnn3C)cc2C1` [Compound 138, 3-(2-methylpyrazol-3-yl)-6-(7-methyl-[1,2,4]triazolo[4,3-b]pyridazin-6-yl)-7,8-dihydro-5H-1,6-naphthyridine], the Emax at 30 µM (human M4, read-out: Emax) is 105%. Further, the pEC50 under setting [1] was 6.24.

Consider `Cc1c(N2CCc3ncccc3C2)nn2cnnc2c1C` [Compound 1, 6-(7,8-dimethyl-[1,2,4]triazolo[4,3-b]pyridazin-6-yl)-7,8-dihydro-5H-1,6-naphthyridine], for which the Emax was 97%. For the same molecule, under setting [1], the negative-log EC50 (pEC50) was 5.40.

For `Cc1c(N2CCc3ncc(Oc4cc(F)ccc4F)cc3C2)nn2cnnc2c1C` [Compound 303, 3-(2,5-difluorophenoxy)-6-(7,8-dimethyl-[1,2,4]triazolo[4,3-b]pyridazin-6-yl)-5,6,7,8-tetrahydro-1,6-naphthyridine], the Emax at 30 µM under setting [4] turned out to be 96%. For the same molecule, under setting [5], the pEC50 was 7.07.

For the molecule `Cc1c(N2CCc3ncc(OCC4CC(F)(F)C4)cc3C2)nn2cnnc2c1C` [Compound 263, 3-((3,3-difluorocyclobutyl)methoxy)-6-(7,8-dimethyl-[1,2,4]triazolo[4,3-b]pyridazin-6-yl)-5,6,7,8-tetrahydro-1,6-naphthyridine], the Emax at 30 µM under setting [4] was 79%. In addition, under setting [5], the pEC50 is 6.30.
